Experimental data: patent EP4610269A1, “UROKINASE PLASMINOGEN ACTIVATOR SURFACE RECEPTOR (UPAR) LIGANDS FOR DIAGNOSTIC OR THERAPEUTIC USE” (3B Pharmaceuticals GmbH, priority 2024, dated 2025)
Where a SMILES comes first, the peptide text is derived from it. Bridges are numbered along the chain shown (N, C = ends). [ ]: non-standard residue; d: D form. The star is where a group is joined. DOTA = O=C(O)CN1CCN(CC(=O)O)CCN(CC(=O)*)CCN(CC(=O)O)CC1; Pentanoyl(4-Me) = CC(C)CCC(=O)*; Cit = NC(=O)NCCC[C@H](N)C(=O)O

Legend:
[1] = biological target: T1, uPAR-expressing HEC-265 human endometrial adenocarcinoma cells (Homo sapiens, UniProt Q03405); assay: Competitive FACS binding assay; conditions: pIC50 category of FACS binding
T1 construct: Cell surface uPAR-expressing HEC-265 human endometrial adenocarcinoma cells; host or cells: HEC-265
How it was run: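 HEC-265 cells incubated 1 h at 4 °C with 10 nM biotinylated uPAR peptide tracer plus increasing test compound, then stained with APC-streptavidin on ice. Median APC fluorescence by flow cytometry; 4PL fit gives pIC50.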

[2] = biological target: T2, Recombinant soluble human NEP (Homo sapiens, UniProt P08473); assay: Proteolytic stability assay against NEP; type: in vitro ADME; conditions: recombinant soluble human NEP, human NEP 100 ng/mL, compound 10 µM, 37°C, LC-MS quantification, read-out: % intact compound remaining after 24h incubation
T2 construct: Recombinant soluble human NEP; purchased BioTechne, Wiesbaden, Germany
Method: To assess the stability of compounds against NEP, the compounds were subjected to an in vitro assay based on the protocol described by Edelson et al. (Edelson, Makhlina et al. 2013).
Recombinant soluble human NEP (BioTechne, Wiesbaden, Germany) at a concentration of 100 ng/mL was mixed with the compound (10 µM) and a stable internal standard (10 µM) and incubated at 37°C. After several time points, samples were taken and analyzed with LC-MS.
The determination of the analyte in the clean sample solutions was performed on an Agilent 1290 UHPLC system coupled to an Agilent 6530 Q-TOF mass spectrometer. The chromatographic separation was carried out on a Phenomenex BioZen XB-C18 HPLC column (50 × 2 mm, 1.7 µm particle size) with gradient elution using a mixture of 0.1% formic acid in water as eluent A and acetonitrile as eluent B (2% B to 41% in 7 min, 800 µl/min, 40°C). Mass spectrometric detection was performed in positive ion ESI mode by scanning the mass range from m/z 50 to 3000 with a sampling rate of 2 / sec.
From the mass spectrometric raw data the ion currents for the double or triple charged monoisotopic signal was extracted for both, the compound and the internal standard.
Quantitation was performed by external matrix calibration with internal standard using the integrated analyte signals.
The activity of NEP was examined using a commercially available chromogenic substrate of NEP.
The result is stated as "% intact compound remaining after 24 h incubation" and means that from the amount of material at the start of the experiment the stated percentage is detected as unchanged material at the end of the experiment by LC-MS quantification. Since all compounds are more than 50% intact after 24 h they are considered as stable enough for diagnostic and therapeutic applications. Table 14: Results of the NEP stability assay

T1 sequence (Q03405 23-335): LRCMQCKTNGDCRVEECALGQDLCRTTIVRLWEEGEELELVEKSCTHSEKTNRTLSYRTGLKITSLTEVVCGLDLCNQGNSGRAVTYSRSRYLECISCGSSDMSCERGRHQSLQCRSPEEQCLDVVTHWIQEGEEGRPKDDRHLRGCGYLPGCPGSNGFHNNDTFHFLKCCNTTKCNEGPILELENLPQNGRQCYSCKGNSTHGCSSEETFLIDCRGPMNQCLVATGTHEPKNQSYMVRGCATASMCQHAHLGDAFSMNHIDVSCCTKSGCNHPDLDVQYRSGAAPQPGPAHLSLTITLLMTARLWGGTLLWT
T2 sequence (P08473 52-750 limits assumed): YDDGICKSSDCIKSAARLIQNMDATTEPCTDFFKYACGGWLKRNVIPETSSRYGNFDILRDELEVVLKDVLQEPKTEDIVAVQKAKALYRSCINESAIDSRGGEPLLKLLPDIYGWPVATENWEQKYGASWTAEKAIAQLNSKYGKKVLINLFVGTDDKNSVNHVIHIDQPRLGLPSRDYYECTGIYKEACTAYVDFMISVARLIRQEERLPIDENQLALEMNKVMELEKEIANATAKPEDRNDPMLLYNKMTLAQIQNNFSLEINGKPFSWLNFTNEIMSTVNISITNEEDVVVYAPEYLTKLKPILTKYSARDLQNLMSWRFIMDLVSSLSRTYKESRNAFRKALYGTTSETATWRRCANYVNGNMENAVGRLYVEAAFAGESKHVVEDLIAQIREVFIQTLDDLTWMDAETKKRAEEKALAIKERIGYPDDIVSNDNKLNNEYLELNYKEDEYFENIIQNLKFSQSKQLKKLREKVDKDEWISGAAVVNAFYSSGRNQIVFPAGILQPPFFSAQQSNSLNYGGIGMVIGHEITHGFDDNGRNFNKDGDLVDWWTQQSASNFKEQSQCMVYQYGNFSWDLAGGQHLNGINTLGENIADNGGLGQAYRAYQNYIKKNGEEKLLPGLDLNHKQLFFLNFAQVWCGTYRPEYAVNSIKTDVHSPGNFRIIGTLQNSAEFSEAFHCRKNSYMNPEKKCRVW

| IC50 [1] [nM] | remaining at 24 h, 10 µM [2] [%] | Structure (SMILES) |
| --- | --- | --- |
| ≤ 10 | > 95 | CC[C@H](C)[C@@H]1NC(=O)[C@@H](C)NC(=O)[C@@H]2CCCN2C(=O)[C@H](Cc2ccccc2)NC(=O)[C@H](Cc2ccc(O)cc2)NC(=O)[C@H](CC(=O)O)NC(=O)[C@H](CCCNC(N)=O)NC(=O)[C@@H](NC(=O)CCC(C)C)CSSC[C@@H](C(N)=O)NC(=O)[C@H](CC(C)C)NC1=O [UPAR-434, iHex-[Cys-Cit-Asp-Tyr-Phe-Pro-ala-Ile-Leu-Cys]-NH2] ({Pentanoyl(4-Me)}-C[Cit]DYFP[dA]ILC-NH2; disulfide 1-10) |
| 39.8 to 100 | 61 | CC[C@H](C)[C@@H]1NC(=O)[C@@H](C)NC(=O)[C@@H]2CCCN2C(=O)[C@H](Cc2ccccc2)NC(=O)[C@H](Cc2ccc(O)cc2)NC(=O)[C@H](CCC(N)=O)NC(=O)[C@H](CCCNC(N)=O)NC(=O)[C@@H](NC(=O)[C@H](CC(C)C)NC(=O)CN2CCN(CC(=O)O)CCN(CC(=O)O)CCN(CC(=O)O)CC2)CSSC[C@@H](C(N)=O)NC(=O)[C@H](CC(C)C)NC1=O [UPAR-441, DOTA-Leu-[Cys-Cit-Gln-Tyr-Phe-Pro-ala-Ile-Leu-Cys]-NH2] ({DOTA}-LC[Cit]QYFP[dA]ILC-NH2; disulfide 2-11) |
